Earlier results as cited in patent publication US20170216273A1, “Nicotine Derivatives and Methods of Use” (priority 2014, published 2017).

Details: approximately; no test described

| SMILES | potency relative to the L isomer |
| --- | --- |
| CN1CCC[C@H]1c1cccnc1 (racemic) [Racemic nicotine] | 70-80 % of the L isomer's potency |
| CN1CCC[C@@H]1c1cccnc1 (single isomer, unassigned) [D isomer of nicotine, D-nicotine] | 25-30 % of the L isomer's potency |
